Measurements: US4264577A, “Contraceptive methods and compositions” (Eli Lilly and Company, priority 1980, dated 1981)

Key:
[1] = Drug release rate in vivo, intrauterine medicated rubber rods; design: species or system rabbit; conditions: uterine horn
Experimental: (a) Dimethylpolysiloxane rubber rods (3 mm. diameter shaved to 2 mm.) weighing 40 mg. each and containing 5, 10, or 20% (W/W) of sodium n-tetradecyl sulfate (prepared by Example 3, Method B, lots 218-1, 225-1, and 218-2, respectively) are inserted into the right uterine horn of virgin Dutch -belted female rabbits, as follows:
After 60 days the animals in Group 1 are sacrificed and the rubber rods are removed, washed, and extracted continuously with methanol for 24 hours to remove the remaining sodium n-tetradecyl sulfate. The methanol extract is evaporated. The residue is dissolved in 10% methanol-water and assayed for sodium n-tetradecyl sulfate by the methylene blue method. The amount of active compound remaining in the rod is subtracted from the amount originally present in the rod, and the difference is assumed to be the amount released during the time period. After 120 days or […] the animals in Group 2 and Group 3, respectively, are sacrificed, and the rods were removed and treated as above described. The release of sodium n-tetradecyl sodium sulfate into the uterine fluids, as determined by the afore-described test procedure, after 60, 120, and 180 days is shown in Table 8, below: […]

[2] = test system: Dutch belted virgin rabbits; assay: Antifertility effect by intrauterine administration (medicated rubber rod in uterine horn); type: in vivo, rabbit; conditions: 40-mg rod, 10% W/W, in right uterine horn; 8 uterine horns; 14 days after breeding
Experimental: Dutch belted virgin rabbits, each weighing 3-4 pounds, are randomly selected and anesthetized with sodium pentobarbital ([…].) administered by IV drip. The uterus of each animal is exposed and a 40-mg. sample in the shape of a rod (3 mm. in diameter) of dimethylpolysiloxane rubber (as prepared in Example 3, Method A) containing 10% W/W of sodium tetradecyl sulfate is sutured into the right uterine horn at a random location in between the cervix and the uterotubal junction. The left horn is left untreated to serve as control. The rubber rod is placed into the uterine horn by passing a curved needle through it and through the uterine wall pulling the rod into the uterine lumen. The entry is closed by suturing. Animals (blank) are similarly treated using unmedicated dimethylpolysiloxane rubber to serve as a second group of controls. The animals are given 300,000 units of Duracillin®) per day (in four doses) and are allowed to recover for 14 days. Each animal is bred to a male of proven fertility and is immediately given a dose (IV) of appropoximately 100 units of human chorionic gonadotropin (HCG) to facilitate ovulation. Fourteen days after breeding, the animal are sacrificed by cervical dislocation and the uterine horns are examined for implanted embryos. The number of embryos per uterine horn are recorded. […]

[3] = Release from coated medicated dimethylpolysiloxane rods into water; type: physicochemical
Experimental: Dimethylpolysiloxane rubber rods (3 mm. diameter) containing 25% (W/W) sodium n-tetradecyl sulfate are prepared by the procedure described in Example 3, Method B. The rods are cut into one-inch pieces. A coating solution is prepared by dissolving 12.5 grams of dimethylpolysiloxane elastomer (DOW-Corning MDX-4-4210) in 37.5 ml of methylene chloride and then dissolving 1.88 grams of curing agent (Dow-Corning MDX-4-4210) therein. A straight pin is placed in the end of each one inch piece of rod. The piece of rod, held by the pin, is dipped into the above solution, and the rod is withdrawn from the solution and drained. The piece of rod is rotated as methylene chloride evaporates. The coated rods are placed in an oven at 120° C. for 10 minutes to cure the coating. The coated rods are then placed in a vacuum oven at 40° C. overnight to remove all methylene chloride. A second and third coat can be applied by the above method.
The release of sodium n-tetradecyl sulfate from the coated medicated rods, prepared as above-described, into water is shown in Table 10, below:
^(a) Weight of rods: 500 mg.; amount of water added: 10 ml.;
temperature: 37° C.; active compound determined by methylene blue

[4] = target: T1, Acrosin (purified from boar sperm) (Sus scrofa, UniProt P08001); assay: Acrosin inhibition in vitro (BAPNA substrate); type: biochemical; conditions: sodium salts
T1 construct: purified from boar sperm; from tissue; host or cells: boar sperm
Experimental: A control using the buffer solution without the test compound added is also run. A 200 μl-sample of the incubation mixture is then withdrawn and is added to a cuvette containing BAPNA (1 ml.) and triethanolamine buffer (2 ml.). The mixture is stirred and placed in a Gilford recording spectrophotometer. The increase in optical density at 383 nm is measured. One unit of acrosin activity is defined as the amount of acrosin which will cause an increase in optical density at 383 nm. of 0.001/minute. One unit of inhibitory activity is defined as the amount of inhibitor which will cause a reduction in the increase in optical density at 383 nm. of 0.001/minute.

T1 sequence (P08001 40-338 limits assumed): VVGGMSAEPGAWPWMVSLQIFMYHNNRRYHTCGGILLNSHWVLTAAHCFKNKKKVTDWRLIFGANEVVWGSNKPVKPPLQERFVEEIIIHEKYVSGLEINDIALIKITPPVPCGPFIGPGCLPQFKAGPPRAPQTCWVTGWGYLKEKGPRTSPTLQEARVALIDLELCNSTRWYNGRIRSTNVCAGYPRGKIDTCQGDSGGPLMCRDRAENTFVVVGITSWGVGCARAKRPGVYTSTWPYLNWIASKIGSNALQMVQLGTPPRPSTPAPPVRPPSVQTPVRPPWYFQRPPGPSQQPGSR
T1 sequence (P08001 17-39 limits assumed): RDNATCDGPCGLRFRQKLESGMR

CCCCCCCCCCCCCCOS(=O)(=O)[O-].[Na+] [n-tetradecyl, sodium n-tetradecyl sulfate]
Amount of sodium n-tetradecyl sulfate released (μg. per day) ([1]; 5% compound in rod, 60 days): 2.25 μg. per day | Amount of sodium n-tetradecyl sulfate released (μg. per day) ([1]; 5% compound in rod, 120 days): 1.80 μg. per day | Amount of sodium n-tetradecyl sulfate released (μg. per day) ([1]; 5% compound in rod, 180 days): 3.60 μg. per day | Amount of sodium n-tetradecyl sulfate released (μg. per day) ([1]; 10% compound in rod, 60 days): 22.1 μg. per day | Amount of sodium n-tetradecyl sulfate released (μg. per day) ([1]; 10% compound in rod, 120 days): 13.7 μg. per day | Amount of sodium n-tetradecyl sulfate released (μg. per day) ([1]; 20% compound in rod, 60 days): 62.4 μg. per day | Amount of sodium n-tetradecyl sulfate released (μg. per day) ([1]; 20% compound in rod, 120 days): 33.5 μg. per day | Embryos Horn (x ± S.D.) [2]: 0 | Total No. of embryos [2]: 0 | Amount of sodium n-tetradecyl sulfate released (mg. per 7 days) ([3]; 1 coat, Days 7, 500 mg rod, 25% W/W, 10 ml water 37° C.): 0 mg. per 7 days | Amount of sodium n-tetradecyl sulfate released (mg. per 7 days) ([3]; 1 coat, Days 14): 0.14 mg. per 7 days | Amount of sodium n-tetradecyl sulfate released (mg. per 7 days) ([3]; 1 coat, Days 21): 77.4 mg. per 7 days | Amount of sodium n-tetradecyl sulfate released (mg. per 7 days) ([3]; 1 coat, Days 28): 414.0 mg. per 7 days | Amount of sodium n-tetradecyl sulfate released (mg. per 7 days) ([3]; 1 coat, Days 35): 128.0 mg. per 7 days | Amount of sodium n-tetradecyl sulfate released (mg. per 7 days) ([3]; 1 coat, Days 42): 586.0 mg. per 7 days | Amount of sodium n-tetradecyl sulfate released (mg. per 7 days) ([3]; 1 coat, Days 49): 370.0 mg. per 7 days | Amount of sodium n-tetradecyl sulfate released (mg. per 7 days) ([3]; 1 coat, Days 56): 524.0 mg. per 7 days | Amount of sodium n-tetradecyl sulfate released (mg. per 7 days) ([3]; 1 coat, Days 63): 571.0 mg. per 7 days | Amount of sodium n-tetradecyl sulfate released (mg. per 7 days) ([3]; 1 coat, Days 70): 524.0 mg. per 7 days | Amount of sodium n-tetradecyl sulfate released (mg. per 7 days) ([3]; 1 coat, Days 77): 471.0 mg. per 7 days | Amount of sodium n-tetradecyl sulfate released (mg. per 7 days) ([3]; 1 coat, Days 84): 386.0 mg. per 7 days | Amount of sodium n-tetradecyl sulfate released (mg. per 7 days) ([3]; 1 coat, Days 91): 330.0 mg. per 7 days | Amount of sodium n-tetradecyl sulfate released (mg. per 7 days) ([3]; 1 coat, Days 98): 349.0 mg. per 7 days | Amount of sodium n-tetradecyl sulfate released (mg. per 7 days) ([3]; 1 coat, Days 105): 240.0 mg. per 7 days | Amount of sodium n-tetradecyl sulfate released (mg. per 7 days) ([3]; 1 coat, Days 112): 329.0 mg. per 7 days | Amount of sodium n-tetradecyl sulfate released (mg. per 7 days) ([3]; 1 coat, Days 119): 286.0 mg. per 7 days | Amount of sodium n-tetradecyl sulfate released (mg. per 7 days) ([3]; 1 coat, Days 126): 430.0 mg. per 7 days | Amount of sodium n-tetradecyl sulfate released (mg. per 7 days) ([3]; 2 coat, Days 7): 0 mg. per 7 days | Amount of sodium n-tetradecyl sulfate released (mg. per 7 days) ([3]; 2 coat, Days 14): 0 mg. per 7 days | Amount of sodium n-tetradecyl sulfate released (mg. per 7 days) ([3]; 2 coat, Days 21): .03 mg. per 7 days | Amount of sodium n-tetradecyl sulfate released (mg. per 7 days) ([3]; 2 coat, Days 28): 628.0 mg. per 7 days | Amount of sodium n-tetradecyl sulfate released (mg. per 7 days) ([3]; 2 coat, Days 35): 124.0 mg. per 7 days | Amount of sodium n-tetradecyl sulfate released (mg. per 7 days) ([3]; 2 coat, Days 42): 96.0 mg. per 7 days | Amount of sodium n-tetradecyl sulfate released (mg. per 7 days) ([3]; 2 coat, Days 49): 186.0 mg. per 7 days | Amount of sodium n-tetradecyl sulfate released (mg. per 7 days) ([3]; 2 coat, Days 56): 135.0 mg. per 7 days | Amount of sodium n-tetradecyl sulfate released (mg. per 7 days) ([3]; 2 coat, Days 63): 183.0 mg. per 7 days | Amount of sodium n-tetradecyl sulfate released (mg. per 7 days) ([3]; 2 coat, Days 70): 174.0 mg. per 7 days | Amount of sodium n-tetradecyl sulfate released (mg. per 7 days) ([3]; 2 coat, Days 77): 229.0 mg. per 7 days | Amount of sodium n-tetradecyl sulfate released (mg. per 7 days) ([3]; 2 coat, Days 84): 170.0 mg. per 7 days | Amount of sodium n-tetradecyl sulfate released (mg. per 7 days) ([3]; 2 coat, Days 91): 200.0 mg. per 7 days | Amount of sodium n-tetradecyl sulfate released (mg. per 7 days) ([3]; 2 coat, Days 98): 190.0 mg. per 7 days | Amount of sodium n-tetradecyl sulfate released (mg. per 7 days) ([3]; 2 coat, Days 105): 224.0 mg. per 7 days | Amount of sodium n-tetradecyl sulfate released (mg. per 7 days) ([3]; 2 coat, Days 112): 121.0 mg. per 7 days | Amount of sodium n-tetradecyl sulfate released (mg. per 7 days) ([3]; 2 coat, Days 119): 100.0 mg. per 7 days | Amount of sodium n-tetradecyl sulfate released (mg. per 7 days) ([3]; 2 coat, Days 126): 92.0 mg. per 7 days | Amount of sodium n-tetradecyl sulfate released (mg. per 7 days) ([3]; 3 coat, Days 7): 0 mg. per 7 days | Amount of sodium n-tetradecyl sulfate released (mg. per 7 days) ([3]; 3 coat, Days 14): .02 mg. per 7 days | Amount of sodium n-tetradecyl sulfate released (mg. per 7 days) ([3]; 3 coat, Days 21): 0 mg. per 7 days | Amount of sodium n-tetradecyl sulfate released (mg. per 7 days) ([3]; 3 coat, Days 28): 10.0 mg. per 7 days | Amount of sodium n-tetradecyl sulfate released (mg. per 7 days) ([3]; 3 coat, Days 35): 142.0 mg. per 7 days | Amount of sodium n-tetradecyl sulfate released (mg. per 7 days) ([3]; 3 coat, Days 42): 0 mg. per 7 days | Amount of sodium n-tetradecyl sulfate released (mg. per 7 days) ([3]; 3 coat, Days 49): 186.0 mg. per 7 days | Amount of sodium n-tetradecyl sulfate released (mg. per 7 days) ([3]; 3 coat, Days 56): 143.0 mg. per 7 days | Amount of sodium n-tetradecyl sulfate released (mg. per 7 days) ([3]; 3 coat, Days 63): 194.0 mg. per 7 days | Amount of sodium n-tetradecyl sulfate released (mg. per 7 days) ([3]; 3 coat, Days 70): 174.0 mg. per 7 days | Amount of sodium n-tetradecyl sulfate released (mg. per 7 days) ([3]; 3 coat, Days 77): 157.0 mg. per 7 days | Amount of sodium n-tetradecyl sulfate released (mg. per 7 days) ([3]; 3 coat, Days 84): 160.0 mg. per 7 days | Amount of sodium n-tetradecyl sulfate released (mg. per 7 days) ([3]; 3 coat, Days 91): 140.0 mg. per 7 days | Amount of sodium n-tetradecyl sulfate released (mg. per 7 days) ([3]; 3 coat, Days 98): 159.0 mg. per 7 days | Amount of sodium n-tetradecyl sulfate released (mg. per 7 days) ([3]; 3 coat, Days 105): 196.0 mg. per 7 days | Amount of sodium n-tetradecyl sulfate released (mg. per 7 days) ([3]; 3 coat, Days 112): 157.0 mg. per 7 days | Amount of sodium n-tetradecyl sulfate released (mg. per 7 days) ([3]; 3 coat, Days 119): 150.0 mg. per 7 days | Amount of sodium n-tetradecyl sulfate released (mg. per 7 days) ([3]; 3 coat, Days 126): 156.0 mg. per 7 days | Inhibition (units/mg.) ([4]; Conc. of Test Solution 1 Mg/ml): 960,000 units/mg. | Inhibition (units/mg.) ([4]; Conc. of Test Solution 10 Mg/ml): 14,200 units/mg.
